# PubChem BioAssay AID1552 (Sanford-Burnham Center for Chemical Genomics, 2009)
# Active and inactive are the calls of the source. How the calls were made is not given here. Residues, ends and D or L forms follow the SMILES beside them.
# Target: Ubiquitin-conjugating enzyme E2 N (Homo sapiens) (UniProt P61088)
# Test: UBE2N binders by NMR, biophysical, purified protein (AID 1552)
# Conditions: NMR binding to purified UBE2N
# Sequence of Ubiquitin-conjugating enzyme E2 N (Homo sapiens) (P61088 whole entry, looked up): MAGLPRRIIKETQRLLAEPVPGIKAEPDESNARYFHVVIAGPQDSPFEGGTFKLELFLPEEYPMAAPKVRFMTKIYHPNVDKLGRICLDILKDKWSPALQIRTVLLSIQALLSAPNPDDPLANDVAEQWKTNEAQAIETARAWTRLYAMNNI
row,Compound,Kd
1,COc1ccc(-c2cc(=O)c3c(O)cc(O[C@H]4O[C@H](CO[C@@H]5O[C@@H](C)[C@H](O)[C@@H](O)[C@H]5O)[C@@H](O)[C@H](O)[C@H]4O)cc3o2)cc1,> 4 mM (inactive)
2,C=CCNC(=O)c1nn2cccnc2c1Cl,> 4 mM (inactive)
3,CSc1nc(NC(C)(C)C)nc(N2CCOCC2)n1,> 4 mM (inactive)
4,Cc1nn(C)c2sc(C(=O)O)cc12,> 4 mM (inactive)
5,Cc1ccc(C(=O)Nc2c[nH]c(=O)[nH]c2=O)cc1,> 4 mM (inactive)
6,Cc1ccc(CNc2ccc(O)cc2)cc1,> 4 mM (inactive)
7,COc1cc(-c2coc3cc(O[C@@H]4O[C@H](CO)[C@@H](O)[C@H](O)[C@H]4O)c(OC)c(O)c3c2=O)cc(O)c1OC,> 4 mM (inactive)
8,O=C(O)c1cccnc1Oc1ccccc1,> 4 mM (inactive)
9,COc1cnn(-c2ccccc2)c(=O)c1N(C)C,> 4 mM (inactive)
10,Cc1ccc(C(=O)N2CCC(C(N)=O)CC2)cc1C,> 4 mM (inactive)
11,CCOc1cc(C)c(Cl)cc1S(=O)(=O)N(C)C,> 4 mM (inactive)
12,COc1cc(C(=S)N2CCC(C(N)=O)CC2)ccc1O,> 4 mM (inactive)
13,CCOC(=O)C1CCC(=O)c2cccn21 (stereo not given),> 4 mM (inactive)
14,COc1ccc2c(c1)OC[C@@H](Cc1ccc(OC)c(OC)c1)[C@@H]2O,> 4 mM (inactive)
15,Cc1ccc(N2C(=O)CCC2=O)cc1,> 4 mM (inactive)
16,COc1ccc(-c2coc3c(OC)c(OC)cc(O)c3c2=O)cc1,> 4 mM (inactive)
17,O=C(NC1CSCC1O)c1ccccc1 (stereo not given),> 4 mM (inactive)
18,COC(=O)c1ccc2nc[nH]c2c1,> 4 mM (inactive)
19,c1ccc2nc3c(nc2c1)CCc1nonc1-3,> 4 mM (inactive)
20,CN1CCN(S(=O)(=O)c2ccc(=O)[nH]c2)CC1,> 4 mM (inactive)
21,c1cc2c(cc1[C@H]1OC[C@H]3[C@@H]1CO[C@H]3c1ccc3c(c1)OCO3)OCO2,> 4 mM (inactive)
22,O=C1N/C(=N\c2ccccn2)SC1Cc1ccccc1 (stereo not given),> 4 mM (inactive)
23,O=C(Cc1ccc(F)cc1)Nc1ncccn1,> 4 mM (inactive)

row,Compound,Kd
1,O=C(NCc1ccccn1)c1ccc(Br)s1,> 4 mM (inactive)
2,Cc1cc(N(CN2CCCC2=O)C(=O)c2ccccc2)no1,> 4 mM (inactive)
3,COC(=O)c1cc2cc(N)ccc2s1,> 4 mM (inactive)
4,CC(=O)NC12CC3CC(C)(C1)CC(NC(C)=O)(C3)C2,> 4 mM (inactive)
5,O=C(Nc1ccon1)c1sc2cc(F)ccc2c1Cl,> 4 mM (inactive)
6,NC(=O)CSc1ccc(-c2ccco2)nn1,> 4 mM (inactive)
7,COc1ccc([C@@H]2CC(=O)c3c(O)cc(O)cc3O2)cc1O,> 4 mM (inactive)
8,S=C1NC(=S)NC(c2ccc3c(c2)OCO3)N1,> 4 mM (inactive)
9,CSc1ccc(/C=N/n2c(C)nnc2C)cc1,> 4 mM (inactive)
10,N#Cc1cnc(N2CCCCC2)nc1N,> 4 mM (inactive)
11,CC[C@@]1(O)C[C@H](O)c2c(cc3c(c2O)C(=O)c2c(O)ccc(O)c2C3=O)[C@H]1C(=O)OC,> 4 mM (inactive)
12,CS(=O)(=O)N1CCN(C(=O)c2ccccc2F)CC1,> 4 mM (inactive)
13,Cc1cc(NC(=O)c2ccc3c(c2)OCO3)no1,> 4 mM (inactive)
14,Cc1ccccc1NC(=O)N1CCOCC1,> 4 mM (inactive)
15,O=c1c(-c2cccs2)[n+]([O-])c2ccccc2n1O,> 4 mM (inactive)
16,Nc1ccc(Oc2ccccc2)nc1,> 4 mM (inactive)
17,CNC(=O)C(=O)Nc1c(C)cccc1C,> 4 mM (inactive)
18,CCOC(=O)C1CCN(c2ncnc3nc[nH]c23)CC1,> 4 mM (inactive)
19,O=C1C[C@@H](c2ccc(O)cc2)Oc2cc(O)cc(O)c21,> 4 mM (inactive)
20,O=C(O)c1ccc(-c2cnco2)cc1,> 4 mM (inactive)
21,CC(C)CCCC(C)C1CCC2C3=CC[C@H]4C[C@@H](O)CC[C@]4(C)C3CC[C@@]21C (stereo not given in full),> 4 mM (inactive)
22,CC(=O)Oc1ccc(N2C(=O)C3C4C=CC(O4)C3C2=O)cc1 (stereo not given),> 4 mM (inactive)
23,CC(=O)O[C@@H]1CC2C(C)(C)C=CC(=O)[C@]2(C)C2CC[C@@]3(C)[C@H](c4ccoc4)OC(=O)C4OC43[C@@]21C (stereo not given in full),> 4 mM (inactive)

row,Compound,Kd
1,Cn1c(CN2CC(c3ccccc3)CC2=O)n[nH]c1=S (stereo not given),> 4 mM (inactive)
2,O=C(Nc1ccon1)c1ccc(Cl)s1,> 4 mM (inactive)
3,CCc1sc(C(=O)NC)cc1Br,> 4 mM (inactive)
4,C#CCCCCCCCCCCCC(=O)CC(O)COC(C)=O (stereo not given),> 4 mM (inactive)
5,Fc1cccc(Cl)c1CN1CCCNCC1,> 4 mM (inactive)
6,Cc1nnc(SCC(=O)NC2CCCC2)[nH]c1=O,> 4 mM (inactive)
7,CCNC(CC(=O)Nc1ccc(F)cc1)C(=O)O (stereo not given),> 4 mM (inactive)
8,Cc1cccn2cc(CNc3ccccc3)nc12,> 4 mM (inactive)
9,O=S(=O)(N1CCCCC1)n1nnc2ccccc21,> 4 mM (inactive)
10,NC(=O)CC1Nc2cccc3cccc(c23)NC1=O (stereo not given),> 4 mM (inactive)
11,COc1ccc(-c2nnsc2N)cc1,> 4 mM (inactive)
12,Cc1sc2nc(NCCO)[nH]c(=O)c2c1C,> 4 mM (inactive)
13,Cc1cc(C(=O)NC2=NCCS2)cs1,> 4 mM (inactive)
14,CC(=O)Nc1c(Cl)cnn(-c2ccccc2)c1=O,> 4 mM (inactive)
15,NC1=NC(=O)/C(=C\c2ccco2)S1,> 4 mM (inactive)
16,O=c1ccc2ccccc2o1,> 4 mM (inactive)
17,c1nnc2c3c4c(sc3ncn12)CCCC4,> 4 mM (inactive)
18,CC12CN([N+](=O)[O-])C3(C(N)=O)CC1CCC23C (stereo not given),> 4 mM (inactive)
19,Nc1csc(C(=O)O)c1,> 4 mM (inactive)
20,CC(=O)N[C@@H](CC(=O)O)C(=O)N[C@@H](CCC(=O)O)C(=O)O (Ac-Asp-Glu-OH),> 4 mM (inactive)
21,Cc1ccc2[nH]c3nc(=S)[nH]nc3c2c1,> 4 mM (inactive)
22,C=CCCCCCCCCCCCc1ccco1,> 4 mM (inactive)
23,CS(=O)(=O)c1cccc(C(=O)Nc2nccs2)c1,> 4 mM (inactive)

row,Compound,Kd
1,Cc1nn(C)c(C)c1NC(=S)NC1CCCC1,> 4 mM (inactive)
2,COc1ccc(C(=O)O)cc1OC,> 4 mM (inactive)
3,COC(=O)Nc1c(C)n(C)n(-c2ccccc2)c1=O,> 4 mM (inactive)
4,CN(C)C(=O)C12CCC(C)(C(=O)O1)C2(C)C (stereo not given),> 4 mM (inactive)
5,Nc1cncc(C(=O)O)c1,> 4 mM (inactive)
6,Cc1onc(-c2c(Cl)cccc2Cl)c1C(N)=O,> 4 mM (inactive)
7,Nc1cc(=O)[nH]c(=S)n1CCc1ccccc1,> 4 mM (inactive)
8,CCNS(=O)(=O)c1ccc(OC)c(C)c1,> 4 mM (inactive)
9,Cc1cccc(CO)n1,> 4 mM (inactive)
10,COC(=O)c1ccc2snnc2c1,> 4 mM (inactive)
11,Cc1ccccc1NS(=O)(=O)c1ccc(F)cc1,> 4 mM (inactive)
12,COc1ccc(N2C(=N)C(C)(C)NC2=O)cc1,> 4 mM (inactive)
13,NCC(N)C(=O)c1ccccc1 (stereo not given),> 4 mM (inactive)
14,O=c1cnnc(SCCc2ccccc2)[nH]1,> 4 mM (inactive)
15,CC1=NN2C(=N)CC(=O)N=C2S1,> 4 mM (inactive)
16,COc1cc2occc2c2oc(=O)ccc12,> 4 mM (inactive)
17,Cn1c(=O)[nH]c(=O)c2c1ncn2CCN1CCCCC1,> 4 mM (inactive)
18,CC1(C)CC[C@]2(C(=O)O)CC[C@]3(C)C(=CCC4[C@@]5(C)CC[C@@H](O)C(C)(C)C5CC[C@]43C)C2C1 (stereo not given in full),> 4 mM (inactive)
19,CN(C)C(=O)CSc1nc(N)cc(=O)[nH]1,> 4 mM (inactive)
20,CC1(C)Cc2cccc(C(=O)O)c2O1,> 4 mM (inactive)
21,Cc1cccc(NC(=O)c2ccccc2C(=O)O)c1,> 4 mM (inactive)
22,O=C1NC(=Nc2ccccc2Cl)SC1(CO)CO,> 4 mM (inactive)
23,CNC[C@@H](O)c1ccc(O)c(O)c1,> 4 mM (inactive)

row,Compound,Kd
1,CCn1c(C)c(C(C)=O)c(N2CCN(C)CC2)nc1=S,> 4 mM (inactive)
2,C[C@H]1C[C@@H](O)[C@]2(O)[C@@]13CC(=O)OC[C@@]2(C)[C@](C)(O)C(=O)C3,> 4 mM (inactive)
3,NC(=O)CSc1nnnn1-c1ccccc1,> 4 mM (inactive)
4,CC(=O)Nc1ccc(S(=O)(=O)N2CCN=C2C)cc1,> 4 mM (inactive)
5,COC(=O)c1ccc2ncccc2c1,> 4 mM (inactive)
6,CC1=C(C(N)=O)C(c2ccco2)C(C(N)=O)=C(C)N1,> 4 mM (inactive)
7,Brc1cccc(-c2nnco2)c1,> 4 mM (inactive)
8,CC(=O)c1ccc(NS(=O)(=O)c2cccc(C)c2)cc1,> 4 mM (inactive)
9,C[C@H]1O[C@@H](O[C@H]2[C@@H](O)C[C@H](O[C@H]3[C@@H](O)C[C@H](O[C@H]4CC[C@]5(C)C6CC[C@]7(C)[C@@H](C8=CC(=O)OC8)CC[C@]7(O)C6CC[C@@H]5C4)O[C@@H]3C)O[C@@H]2C)C[C@H](O)[C@@H]1O (stereo not given in full),> 4 mM (inactive)
10,CN1C(=O)CC[C@H]1c1cccnc1,> 4 mM (inactive)
11,NS(=O)(=O)c1ccccc1Cl,> 4 mM (inactive)
12,CSc1nc2cc(F)c(F)cc2n1C,> 4 mM (inactive)
13,COC(=O)C[C@@H]1C2(C)C(=O)[C@@H](CC3=C4C=C(OC)O[C@@H](c5ccoc5)[C@]4(C)CCC32)[C@H](O)C1(C)C (stereo not given in full),> 4 mM (inactive)
14,COC(=O)c1noc(C)c1C(C)=O,> 4 mM (inactive)
15,CSc1nnnn1-c1cccc(O)c1,> 4 mM (inactive)
16,CCn1ccc(C(=O)Nc2nccs2)n1,> 4 mM (inactive)
17,Cc1cc(C(F)(F)F)n2nc(C(=O)O)c(Cl)c2n1,> 4 mM (inactive)
18,O=C(O)c1ccc2snnc2c1,> 4 mM (inactive)
19,O=c1ccn([C@@H]2O[C@H](COP(=O)(O)OP(=O)(O)OP(=O)(O)O)[C@@H](O)[C@H]2O)c(=O)[nH]1,> 4 mM (inactive)
20,OCC1Cc2ccccc2N1 (stereo not given),> 4 mM (inactive)
21,Cc1cc(C(=O)N2CCN(c3ccccn3)CC2)no1,> 4 mM (inactive)
22,CC1(C)Cc2nc(N3CCOCC3)c(C#N)cc2CO1,> 4 mM (inactive)
23,NC(=S)CN1CCCC1=O,> 4 mM (inactive)
